Measurements reported in the supplement of paper PMC10307832.

Assays:
Assay in all cases: relative viability (nuclei count vs DMSO), 5 days (fraction); higher = more cells survive
Alisertib = compound: COc1cc(Nc2ncc3c(n2)-c2ccc(Cl)cc2C(c2c(F)cccc2OC)=NC3)ccc1C(=O)O [Alisertib]
Summary of the method: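 For viability, nuclei in each treated well were divided by nuclei in vehicle wells and the median across plates was taken. Lung cancer cell lines in 1536-well plates were pinned with five library-drug doses (not always all listed) spaced by √10, cultured 5 days without medium change, and imaged at 4× after Hoechst staining, with plates passing only at control CV below 25% and at least one doubling.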

Alisertib + Olaparib = compound: COc1cc(Nc2ncc3c(n2)-c2ccc(Cl)cc2C(c2c(F)cccc2OC)=NC3)ccc1C(=O)O [Alisertib] + O=C(c1cc(Cc2n[nH]c(=O)c3ccccc23)ccc1F)N1CCN(C(=O)C2CC2)CC1 [Olaparib] (partner 8 µM)
Summary of the method: (§1)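 For relative viability, nuclei counts in treated wells were divided by those in vehicle wells. Lung cancer cell lines had been pin-tool dosed in 1536-well plates the day after seeding and cultured for 5 days, then fixed and stained in one step (final 0.05% Triton X-100, 1% formaldehyde, 1 ug/ml Hoechst) and imaged at 4×. Doses were one drug alone or a fixed anchor-drug dose plus five library-drug doses (not always all listed) in √10 steps, and values are duplicate-plate medians.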

Alisertib + Phenformin = compound: COc1cc(Nc2ncc3c(n2)-c2ccc(Cl)cc2C(c2c(F)cccc2OC)=NC3)ccc1C(=O)O [Alisertib] + N=C(N)NC(=N)NCCc1ccccc1 [Phenformin] (partner 250 µM)
Summary of the method: as §1

Alisertib + Trametinib = compound: COc1cc(Nc2ncc3c(n2)-c2ccc(Cl)cc2C(c2c(F)cccc2OC)=NC3)ccc1C(=O)O [Alisertib] + CC(=O)Nc1cccc(-n2c(=O)n(C3CC3)c(=O)c3c(Nc4ccc(I)cc4F)n(C)c(=O)c(C)c32)c1 [Trametinib] (partner 0.02 µM)
Summary of the method: as §1

Cell Line	relative viability (Alisertib; 0.005 µM)	relative viability (Alisertib; 0.01581 µM)	relative viability (Alisertib; 0.05 µM)	relative viability (Alisertib; 0.1581 µM)	relative viability (Alisertib; 0.5 µM)	relative viability (Alisertib + Olaparib; first compound 0.005 µM)	relative viability (Alisertib + Olaparib; first compound 0.01581 µM)	relative viability (Alisertib + Olaparib; first compound 0.05 µM)	relative viability (Alisertib + Olaparib; first compound 0.1581 µM)	relative viability (Alisertib + Olaparib; first compound 0.5 µM)	relative viability (Alisertib + Phenformin; first compound 0.005 µM)	relative viability (Alisertib + Phenformin; first compound 0.01581 µM)	relative viability (Alisertib + Phenformin; first compound 0.05 µM)	relative viability (Alisertib + Phenformin; first compound 0.1581 µM)	relative viability (Alisertib + Phenformin; first compound 0.5 µM)	relative viability (Alisertib + Trametinib; first compound 0.005 µM)	relative viability (Alisertib + Trametinib; first compound 0.01581 µM)	relative viability (Alisertib + Trametinib; first compound 0.05 µM)	relative viability (Alisertib + Trametinib; first compound 0.1581 µM)	relative viability (Alisertib + Trametinib; first compound 0.5 µM)
LCLC-97TM1	0.931	0.791	0.496	0.137	0.121	0.332	0.306	0.102	0.0999	0.0824	0.451	0.386	0.333	0.174	0.153	0.202	0.201	0.124	0.126	0.0987
HARA	0.897	0.94	0.656	0.24	0.185	0.763	0.703	0.17	0.328	0.146	0.398	0.469	0.358	0.187	0.133	0.722	0.769	0.348	0.12	0.207
HCC-78	0.858	0.642	0.303	0.284	0.328	0.772	0.503	0.23	0.292	0.218	0.61	0.541	0.321	0.281	0.26	0.67	0.646	0.263	0.236	0.259
NCI-H1666	0.904	0.814	0.689	0.534	0.438	0.739	0.739	0.706	0.629	0.511	0.522	0.49	0.506	0.426	0.344	0.839	0.738	0.679	0.612	0.501
NCI-H2347	1.01	0.906	0.862	0.703	0.428	0.555	0.546	0.474	0.491	0.365	0.346	0.373	0.299	0.411	0.242	0.281	0.273	0.286	0.271	0.237
PC-14	0.827	0.846	0.584	0.156	0.0817	0.23	0.225	0.13	0.0581	0.0485	0.481	0.453	0.363	0.0963	0.0647	0.757	0.56	0.385	0.234	0.0465
NCI-H2023	0.838	0.727	0.566	0.227	0.109	0.448	0.456	0.27	0.134	0.101	0.428	0.388	0.28	0.157	0.0966	0.623	0.435	0.289	0.123	0.124
201T	0.985	0.964	0.966	0.466	0.386	0.823	0.803	0.711	0.361	0.33	0.38	0.435	0.441	0.238	0.256	0.732	0.707	0.707	0.679	0.278
NCI-H1915	0.816	0.773	0.572	0.383	0.25	0.218	0.186	0.142	0.138	0.129	0.309	0.274	0.241	0.229	0.173	0.303	0.303	0.241	0.201	0.138
NCI-H2009	0.926	0.97	0.513	0.303	0.254	0.645	0.689	0.275	0.291	0.148	0.486	0.462	0.312	0.228	0.203	0.272	0.28	0.287	0.136	0.138
BEN	0.88	0.812	0.374	0.234	0.209	0.983	0.917	0.295	0.269	0.341	0.283	0.299	0.233	0.207	0.184	1.02	0.976	0.435	0.286	0.409
PC-3 [JPC-3]	0.974	0.976	0.932	0.48	0.398	1.09	1.02	0.802	0.632	0.483	0.488	0.456	0.484	0.377	0.293	0.669	0.649	0.591	0.526	0.493
SK-MES-1	0.913	0.947	0.561	0.326	0.16	0.594	0.614	0.351	0.192	0.168	0.643	0.684	0.502	0.38	0.146	0.525	0.556	0.603	0.468	0.183
NCI-H838	0.833	0.831	0.617	0.313	0.191	0.673	0.552	0.324	0.169	0.152	0.444	0.446	0.276	0.183	0.144	0.432	0.49	0.269	0.146	0.129
NCI-H1355	0.881	0.771	0.774	0.255	0.204	0.575	0.476	0.191	0.152	0.159	0.4	0.353	0.23	0.182	0.189	0.39	0.411	0.355	0.187	0.153
NCI-H1975	0.85	0.828	0.565	0.317	0.207	0.68	0.627	0.347	0.234	0.163	0.405	0.375	0.265	0.176	0.137	0.303	0.33	0.195	0.241	0.169
LK-2	0.962	0.853	0.497	0.297	0.202	0.648	0.56	0.294	0.183	0.109	0.38	0.385	0.179	0.149	0.163	0.746	0.677	0.522	0.25	0.183
NCI-H727	0.817	0.929	0.542	0.384	0.401	0.679	0.624	0.556	0.518	0.465	0.514	0.504	0.262	0.276	0.352	0.308	0.392	0.355	0.341	0.353

Cell Line	relative viability (Alisertib; 0.005 µM)	relative viability (Alisertib; 0.01581 µM)	relative viability (Alisertib; 0.05 µM)	relative viability (Alisertib; 0.1581 µM)	relative viability (Alisertib; 0.5 µM)	relative viability (Alisertib + Olaparib; first compound 0.005 µM)	relative viability (Alisertib + Olaparib; first compound 0.01581 µM)	relative viability (Alisertib + Olaparib; first compound 0.05 µM)	relative viability (Alisertib + Olaparib; first compound 0.1581 µM)	relative viability (Alisertib + Olaparib; first compound 0.5 µM)	relative viability (Alisertib + Phenformin; first compound 0.005 µM)	relative viability (Alisertib + Phenformin; first compound 0.01581 µM)	relative viability (Alisertib + Phenformin; first compound 0.05 µM)	relative viability (Alisertib + Phenformin; first compound 0.1581 µM)	relative viability (Alisertib + Phenformin; first compound 0.5 µM)	relative viability (Alisertib + Trametinib; first compound 0.005 µM)	relative viability (Alisertib + Trametinib; first compound 0.01581 µM)	relative viability (Alisertib + Trametinib; first compound 0.05 µM)	relative viability (Alisertib + Trametinib; first compound 0.1581 µM)	relative viability (Alisertib + Trametinib; first compound 0.5 µM)
HCC-366	1	0.813	0.0889	0.0461	0.054	0.32	0.173	0.0172	0.0252	0.0457	0.552	0.202	0.138	0.0286	0.0335	0.306	0.23	0.0254	0.0345	0.0398
HOP-62	0.918	0.867	0.505	0.237	0.17	0.361	0.328	0.134	0.132	0.0731	0.612	0.553	0.345	0.147	0.143	0.398	0.337	0.274	0.223	0.174
NCI-H1944	0.923	1.08	0.789	0.39	0.273	0.402	0.381	0.318	0.201	0.178	0.182	0.206	0.193	0.166	0.112	0.414	0.408	0.272	0.251	0.173
UMC-11	0.437	0.3	0.211	0.176	0.186	0.287	0.216	0.193	0.252	0.215	0.235	0.192	0.176	0.174	0.164	0.344	0.246	0.15	0.148	0.185
LU99A	0.961	0.853	0.579	0.288	0.193	0.253	0.223	0.189	0.151	0.133	0.755	0.798	0.658	0.3	0.239	0.507	0.473	0.181	0.212	0.195
NCI-H650	0.724	0.856	0.394	0.258	0.209	0.366	0.299	0.171	0.164	0.154	0.404	0.377	0.258	0.202	0.168	0.829	0.684	0.44	0.229	0.208
A-427	0.798	0.681	0.333	0.231	0.19	0.65	0.563	0.204	0.177	0.227	0.298	0.187	0.117	0.132	0.121	0.596	0.57	0.244	0.241	0.262
COR-L 105	0.863	0.952	0.765	0.305	0.303	0.689	0.641	0.502	0.498	0.311	0.454	0.493	0.335	0.234	0.246	0.4	0.407	0.369	0.325	0.281
NCI-H441	0.839	0.662	0.201	0.179	0.188	0.487	0.471	0.139	0.173	0.172	0.755	0.444	0.2	0.255	0.249	0.378	0.341	0.16	0.168	0.141
EBC-1	0.875	0.806	0.373	0.183	0.162	0.609	0.478	0.195	0.216	0.132	–	–	–	–	–	–	–	–	–	–
NCI-H1648	0.833	0.755	0.606	0.255	0.242	–	0.711	0.293	0.242	0.267	–	–	–	–	–	–	0.42	0.27	0.229	0.25
ABC-1	0.794	0.845	0.787	0.286	0.293	0.534	0.708	0.677	0.555	0.432	0.269	0.225	0.185	0.218	0.195	–	–	–	–	–
NCI-H1563	0.999	0.943	0.871	0.903	0.647	–	–	–	–	–	0.664	0.643	0.674	0.724	0.539	–	–	–	–	–
NCI-H1299	0.992	0.963	0.585	0.415	0.233	0.931	0.877	0.582	0.396	0.193	–	–	–	–	–	–	–	–	–	–
A549	0.877	0.633	0.331	0.0691	0.0535	0.317	0.305	0.0782	0.079	0.0413	0.152	0.0871	0.0611	0.0311	0.0352	–	–	–	–	–
IA-LM	0.795	0.823	0.569	0.357	0.0972	0.671	0.674	0.596	0.449	0.0913	–	–	–	–	–	–	–	–	–	–
Calu-6	0.863	0.669	0.319	0.196	0.186	0.545	0.385	0.237	0.207	0.13	–	–	–	–	–	–	–	–	–	–
